Test system: 227483-062-R1-J1-PDC complex spheroids with HUVEC/MSC, viability
Test: Anticancer human tumor 227483-062-R1-J1-PDC patient-derived pancreatic carcinoma cell line growth inhibition [CLK]
Conditions: for IC50: curve of first compound; for viability, T/C: stronger effect = lower value
Procedure, shortened: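 Multi-cell-type spheroids combined patient-derived tumor cells with HUVEC endothelial cells and human mesenchymal stem cells. Paired agents were dosed in half-log steps down from about clinical Cmax, or from 10 microM where Cmax was unknown.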

[1] = second compound 0.0316 µM, first compound 0.0316 µM
[2] = second compound 0.0316 µM, first compound 0.1 µM
[3] = second compound 0.0316 µM, first compound 0.316 µM
[4] = second compound 0.0316 µM, first compound 1 µM
[5] = second compound 0.0316 µM, first compound 3.16 µM
[6] = second compound 0.0316 µM, first compound 10 µM
[7] = second compound 0.1 µM, first compound 0.0316 µM
[8] = second compound 0.1 µM, first compound 0.1 µM
[9] = second compound 0.1 µM, first compound 0.316 µM
[10] = second compound 0.1 µM, first compound 1 µM
[11] = second compound 0.1 µM, first compound 3.16 µM
[12] = second compound 0.1 µM, first compound 10 µM
[13] = second compound 0.316 µM, first compound 0.0316 µM
[14] = second compound 0.316 µM, first compound 0.1 µM
[15] = second compound 0.316 µM, first compound 0.316 µM
[16] = second compound 0.316 µM, first compound 1 µM
[17] = second compound 0.316 µM, first compound 3.16 µM
[18] = second compound 0.316 µM, first compound 10 µM
[19] = second compound 1 µM, first compound 0.0316 µM
[20] = second compound 1 µM, first compound 0.1 µM
[21] = second compound 1 µM, first compound 0.316 µM
[22] = second compound 1 µM, first compound 1 µM
[23] = second compound 1 µM, first compound 3.16 µM
[24] = second compound 1 µM, first compound 10 µM
[25] = second compound 3.16 µM, first compound 0.0316 µM
[26] = second compound 3.16 µM, first compound 0.1 µM
[27] = second compound 3.16 µM, first compound 0.316 µM
[28] = second compound 3.16 µM, first compound 1 µM
[29] = second compound 3.16 µM, first compound 3.16 µM
[30] = second compound 3.16 µM, first compound 10 µM
[31] = second compound 10 µM, first compound 0.0316 µM
[32] = second compound 10 µM, first compound 0.1 µM
[33] = second compound 10 µM, first compound 0.316 µM
[34] = second compound 10 µM, first compound 1 µM
[35] = second compound 10 µM, first compound 3.16 µM
[36] = second compound 10 µM, first compound 10 µM
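Also: spheroids exposed to compounds for seven days before readout.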
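For viability, T/C in this document: percent of DMSO vehicle control luminescence as 100% viability.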

Question: `CC(=O)O[C@H]1C(=O)[C@@]2(C)[C@H]([C@H](OC(=O)c3ccccc3)[C@]3(O)C[C@H](OC(=O)[C@H](O)[C@@H](NC(=O)c4ccccc4)c4ccccc4)C(C)=C1C3(C)C)[C@]1(OC(C)=O)CO[C@@H]1C[C@@H]2O` + CN1CCN(c2cc(C(=O)Nc3cc4cc(-c5cnn(C)c5)ccc4cn3)ccn2)CC1 was tested. Which IC50 (second compound 0.0316 µM) did it give?
Answer: Its IC50 is less than 31.6 nM.

Question: And the IC50 (second compound 0.1 µM)?
Answer: Its IC50 is less than 31.6 nM.

Question: And the IC50 (second compound 0.316 µM)?
Answer: The IC50 was less than 31.6 nM.

Question: What about the IC50 (second compound 1 µM) of the same molecule?
Answer: Its IC50 is less than 31.6 nM.

Question: What about the IC50 (second compound 3.16 µM) of the same molecule?
Answer: The IC50 was less than 31.6 nM.

Question: And the IC50 (second compound 10 µM)?
Answer: Its IC50 is less than 31.6 nM.

Question: What about the viability, T/C [1] of the same molecule?
Answer: The viability, T/C was 27.4%.

Question: And the viability, T/C [2]?
Answer: Its viability, T/C is 22.2%.

Question: And the viability, T/C [3]?
Answer: Its viability, T/C is 31.2%.

Question: What about the viability, T/C [4] of the same molecule?
Answer: Its viability, T/C is 31.4%.

Question: And the viability, T/C [5]?
Answer: Its viability, T/C is 36.9%.

Question: And the viability, T/C [6]?
Answer: The viability, T/C was 43.8%.

Question: What about the viability, T/C [7] of the same molecule?
Answer: Its viability, T/C is 28.6%.

Question: And the viability, T/C [8]?
Answer: The viability, T/C was 32.8%.

Question: And the viability, T/C [9]?
Answer: The viability, T/C was 35%.

Question: What about the viability, T/C [10] of the same molecule?
Answer: Its viability, T/C is 38%.

Question: And the viability, T/C [11]?
Answer: Its viability, T/C is 40.7%.

Question: What about the viability, T/C [12] of the same molecule?
Answer: Its viability, T/C is 40.6%.

Question: And the viability, T/C [13]?
Answer: The viability, T/C was 2.61%.

Question: And the viability, T/C [14]?
Answer: The viability, T/C was 6.66%.

Question: What about the viability, T/C [15] of the same molecule?
Answer: The viability, T/C was 2.59%.

Question: And the viability, T/C [16]?
Answer: The viability, T/C was 4.5%.

Question: And the viability, T/C [17]?
Answer: The viability, T/C was 5.51%.

Question: And the viability, T/C [18]?
Answer: Its viability, T/C is 6.7%.

Question: And the viability, T/C [19]?
Answer: Its viability, T/C is 1.8%.

Question: And the viability, T/C [20]?
Answer: Its viability, T/C is 2.26%.

Question: What about the viability, T/C [21] of the same molecule?
Answer: Its viability, T/C is 3.26%.

Question: And the viability, T/C [22]?
Answer: The viability, T/C was 4%.

Question: And the viability, T/C [23]?
Answer: Its viability, T/C is 1.87%.

Question: And the viability, T/C [24]?
Answer: Its viability, T/C is 2.01%.

Question: What about the viability, T/C [25] of the same molecule?
Answer: The viability, T/C was 7.44%.

Question: What about the viability, T/C [26] of the same molecule?
Answer: Its viability, T/C is 3.02%.

Question: What about the viability, T/C [27] of the same molecule?
Answer: Its viability, T/C is 3.51%.

Question: And the viability, T/C [28]?
Answer: The viability, T/C was 2.58%.

Question: What about the viability, T/C [29] of the same molecule?
Answer: The viability, T/C was 5.48%.

Question: And the viability, T/C [30]?
Answer: The viability, T/C was 4.46%.

Question: And the viability, T/C [31]?
Answer: Its viability, T/C is 1.55%.

Question: And the viability, T/C [32]?
Answer: Its viability, T/C is 1.61%.

Question: What about the viability, T/C [33] of the same molecule?
Answer: Its viability, T/C is 1.94%.

Question: What about the viability, T/C [34] of the same molecule?
Answer: The viability, T/C was 1.68%.

Question: And the viability, T/C [35]?
Answer: Its viability, T/C is 1.56%.

Question: And the viability, T/C [36]?
Answer: The viability, T/C was 1.39%.

Question: How did the IC50 (second compound 0.0316 µM) turn out when `COC1C=CCC(C)C(C)S(=O)(=O)NC(=O)c2ccc3c(c2)N(CC2CCC21)CC1(CCCc2cc(Cl)ccc21)CO3` (centres undefined) + CNC(=O)c1ccc(Nc2nc(OC3CCCC3)c3c(-c4ccc5nc(C)oc5c4)c[nH]c3n2)c(OC)c1 was run?
Answer: The IC50 was 6020 nM.

Question: What about the IC50 (second compound 0.1 µM) of the same molecule?
Answer: The IC50 was 3740 nM.

Question: And the IC50 (second compound 0.316 µM)?
Answer: The IC50 was 897 nM.

Question: What about the IC50 (second compound 1 µM) of the same molecule?
Answer: The IC50 was 207 nM.

Question: What about the IC50 (second compound 3.16 µM) of the same molecule?
Answer: Its IC50 is 46.2 nM.

Question: And the IC50 (second compound 10 µM)?
Answer: Its IC50 is less than 31.6 nM.

Question: And the viability, T/C [1]?
Answer: The viability, T/C was 84%.

Question: And the viability, T/C [2]?
Answer: Its viability, T/C is 94.8%.

Question: And the viability, T/C [3]?
Answer: The viability, T/C was 106%.

Question: And the viability, T/C [4]?
Answer: The viability, T/C was 81.1%.

Question: And the viability, T/C [5]?
Answer: Its viability, T/C is 88.3%.

Question: And the viability, T/C [6]?
Answer: Its viability, T/C is 20.1%.

Question: What about the viability, T/C [7] of the same molecule?
Answer: Its viability, T/C is 78.6%.

Question: What about the viability, T/C [8] of the same molecule?
Answer: The viability, T/C was 88.7%.

Question: What about the viability, T/C [9] of the same molecule?
Answer: Its viability, T/C is 77.4%.

Question: What about the viability, T/C [10] of the same molecule?
Answer: Its viability, T/C is 64.7%.

Question: And the viability, T/C [11]?
Answer: The viability, T/C was 59.7%.

Question: What about the viability, T/C [12] of the same molecule?
Answer: The viability, T/C was 17.8%.

Question: What about the viability, T/C [13] of the same molecule?
Answer: The viability, T/C was 94%.

Question: What about the viability, T/C [14] of the same molecule?
Answer: The viability, T/C was 76.3%.

Question: What about the viability, T/C [15] of the same molecule?
Answer: The viability, T/C was 76.6%.

Question: What about the viability, T/C [16] of the same molecule?
Answer: The viability, T/C was 43.2%.

Question: What about the viability, T/C [17] of the same molecule?
Answer: The viability, T/C was 30%.

Question: What about the viability, T/C [18] of the same molecule?
Answer: Its viability, T/C is 14.6%.

Question: What about the viability, T/C [19] of the same molecule?
Answer: Its viability, T/C is 75%.

Question: And the viability, T/C [20]?
Answer: The viability, T/C was 58.7%.

Question: What about the viability, T/C [21] of the same molecule?
Answer: Its viability, T/C is 45.9%.

Question: And the viability, T/C [22]?
Answer: The viability, T/C was 28%.

Question: What about the viability, T/C [23] of the same molecule?
Answer: The viability, T/C was 16.7%.

Question: And the viability, T/C [24]?
Answer: Its viability, T/C is 10.8%.

Question: What about the viability, T/C [25] of the same molecule?
Answer: The viability, T/C was 54%.

Question: And the viability, T/C [26]?
Answer: The viability, T/C was 41.2%.

Question: And the viability, T/C [27]?
Answer: The viability, T/C was 33%.

Question: And the viability, T/C [28]?
Answer: Its viability, T/C is 17.7%.

Question: And the viability, T/C [29]?
Answer: The viability, T/C was 9.9%.

Question: And the viability, T/C [30]?
Answer: The viability, T/C was 8.25%.

Question: What about the viability, T/C [31] of the same molecule?
Answer: The viability, T/C was 38.7%.

Question: What about the viability, T/C [32] of the same molecule?
Answer: Its viability, T/C is 34.4%.

Question: And the viability, T/C [33]?
Answer: The viability, T/C was 25.8%.

Question: And the viability, T/C [34]?
Answer: The viability, T/C was 14.4%.

Question: And the viability, T/C [35]?
Answer: The viability, T/C was 9.05%.

Question: What about the viability, T/C [36] of the same molecule?
Answer: Its viability, T/C is 9.22%.
